By EC50 is commonly meant the concentration needed to bring the measured effect to its halfway point.

For the assay, the target named is T1, LPHN2 (Homo sapiens, UniProt O95490).
T1 sequence (O95490 26-1459): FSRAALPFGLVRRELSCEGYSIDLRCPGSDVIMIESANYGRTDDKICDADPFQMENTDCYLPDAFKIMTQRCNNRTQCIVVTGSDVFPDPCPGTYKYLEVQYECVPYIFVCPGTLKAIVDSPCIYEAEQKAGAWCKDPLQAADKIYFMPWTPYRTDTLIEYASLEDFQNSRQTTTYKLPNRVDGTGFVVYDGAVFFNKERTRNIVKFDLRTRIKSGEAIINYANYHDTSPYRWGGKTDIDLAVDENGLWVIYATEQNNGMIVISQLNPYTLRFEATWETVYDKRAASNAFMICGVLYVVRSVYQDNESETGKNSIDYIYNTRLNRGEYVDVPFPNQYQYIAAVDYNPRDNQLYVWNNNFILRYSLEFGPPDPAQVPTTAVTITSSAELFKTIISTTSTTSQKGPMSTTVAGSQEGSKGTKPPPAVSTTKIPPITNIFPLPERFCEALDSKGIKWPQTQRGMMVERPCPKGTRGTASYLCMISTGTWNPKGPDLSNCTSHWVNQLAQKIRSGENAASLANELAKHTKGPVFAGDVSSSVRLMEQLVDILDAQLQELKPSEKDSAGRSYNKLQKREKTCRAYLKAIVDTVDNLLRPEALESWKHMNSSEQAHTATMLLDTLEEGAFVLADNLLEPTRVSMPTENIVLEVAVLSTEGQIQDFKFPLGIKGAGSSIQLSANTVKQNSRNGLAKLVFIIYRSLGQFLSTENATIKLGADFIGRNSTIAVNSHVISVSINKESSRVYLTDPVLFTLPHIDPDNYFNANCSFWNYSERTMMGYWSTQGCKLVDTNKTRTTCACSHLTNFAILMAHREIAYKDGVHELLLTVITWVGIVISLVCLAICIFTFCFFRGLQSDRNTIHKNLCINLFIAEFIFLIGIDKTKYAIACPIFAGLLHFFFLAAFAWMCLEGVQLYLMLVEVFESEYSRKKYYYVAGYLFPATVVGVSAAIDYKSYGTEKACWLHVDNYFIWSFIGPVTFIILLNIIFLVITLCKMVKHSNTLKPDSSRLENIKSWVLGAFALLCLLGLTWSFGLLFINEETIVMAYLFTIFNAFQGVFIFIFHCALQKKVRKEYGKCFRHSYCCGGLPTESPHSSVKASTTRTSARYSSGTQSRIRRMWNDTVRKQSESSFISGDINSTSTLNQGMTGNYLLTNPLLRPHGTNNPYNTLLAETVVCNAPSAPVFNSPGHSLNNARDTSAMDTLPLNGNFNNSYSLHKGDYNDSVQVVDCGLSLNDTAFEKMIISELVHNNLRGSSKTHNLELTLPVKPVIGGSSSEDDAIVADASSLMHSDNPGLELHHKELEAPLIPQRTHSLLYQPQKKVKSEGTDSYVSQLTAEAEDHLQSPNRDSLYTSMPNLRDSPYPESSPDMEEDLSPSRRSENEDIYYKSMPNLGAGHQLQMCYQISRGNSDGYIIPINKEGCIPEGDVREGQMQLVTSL
Kind of assay: BRET G protein. In kind it is cell-based. (In BRET a luciferase serves as donor, and the signal depends on an acceptor being close.)

Compound `COc1ccc(OC)c(NC2=NC(=O)CC(C(=O)Nc3cc(C(F)(F)F)ccc3Cl)S2)c1` (stereo not shown) [D11] gave an EC50 of 0.0399 ± 0.0162 µM.
